Results taken from the supplement of paper PMC10627819.

Key:
[1] = test system: B. subtilis 168; experiment: fitness (endpoint OD595 vs no drug) (fraction); higher = more growth
Summary of the method: (§1)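 In 384-well plates at 37 °C, cultures began at OD595 0.01 in 30 µl, with 55 µl used for S. pneumoniae. OD595 readings every 30 min for 14 h were corrected by the first reading. Fitness divides the stationary-phase transition optical density by the robust mean of no-drug control wells. The result is capped at 1.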

[2] = test system: S. pneumoniae D39V; experiment: as above
Summary of the method: as §1

[3] = test system: S. aureus DSM 20231; experiment: Bliss interaction score (quartile over a dose matrix) (fitness difference); higher = more antagonism (negative = synergy)
Summary of the method: (§2)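 Each OD595 reading at entry into stationary phase was scaled to the robust mean of the untreated wells on its plate, with a ceiling of 1. These ratios define fitness, and single-drug fitness was inferred from combinations. The Bliss score compares observed fitness with the product-based expectation and is reported as quartiles across all replicate types, technical, biological and donor/recipient.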

[4] = test system: S. aureus Newman; experiment: as above
Summary of the method: as §2

[5] = test system: B. subtilis 168; experiment: as above
Summary of the method: as §2

[6] = test system: S. pneumoniae D39V; experiment: as above
Summary of the method: as §2
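Throughout, for Bliss interaction score (quartile over a dose matrix): first quartile when negative (synergy) and third quartile when positive (antagonism).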
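Throughout, for fitness (endpoint OD595 vs no drug): OD595 on entry to stationary phase over no-drug wells; at most 1.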

O=C(O[C@@H]1Cc2c(O)cc(O)cc2O[C@@H]1c1cc(O)c(O)c(O)c1)c1cc(O)c(O)c(O)c1 [EGCG] + CCC(C)C1C(=O)NC(=C)C(=O)NC(C(=O)NC(CSCC(C(=O)N1)NC(=O)/C(=C/C)/NC(=O)C(C(C)CC)N)C(=O)NC2C(SCC(NC(=O)CNC(=O)C3CCCN3C2=O)C(=O)NC(CCCCN)C(=O)NC4C(SCC(NC(=O)CNC(=O)C(NC(=O)C(NC(=O)C(NC(=O)CNC4=O)C)CC(C)C)CCSC)C(=O)NC(CC(=O)N)C(=O)NC(CCSC)C(=O)NC(CCCCN)C(=O)NC5C(SCC6C(=O)NC(C(=O)NC(CSC(C(C(=O)N6)NC(=O)C(NC5=O)C)C)C(=O)NC(CO)C(=O)NC(C(C)CC)C(=O)NC(CC7=CN=CN7)C(=O)NC(C(C)C)C(=O)NC(=C)C(=O)NC(CCCCN)C(=O)O)CC8=CN=CN8)C)C)C)CC(C)C [Nisin]
fitness, main component drawn
Details | first compound 6.25 µg/mL | first compound 12.5 µg/mL | first compound 25 µg/mL | first compound 50 µg/mL
[1], partner 0.5 µg/mL | 0.853 | 0.761 | – | –
[1], partner 1 µg/mL | 0.813 | 0.619 | – | –
[1], partner 2 µg/mL | 0.432 | 0.308 | 0.21 | –
[2], partner 0.4275 µg/mL | – | 0.965 | 0.967 | 0.982
[2], partner 0.855 µg/mL | – | 0.989 | ≥ 1 | ≥ 1
[2], partner 1.6 µg/mL | – | 0.0156 | 0.0307 | –
[2], partner 1.71 µg/mL | – | 0.105 | 0.131 | 0.244
[2], partner 3.2 µg/mL | – | 0.0612 | – | –
[2], partner 6.4 µg/mL | – | 0.08 | 0.046 | 0.0006

fitness, [1], one replicate, main component drawn
Details | partner 1.25 µg/mL | partner 1.6 µg/mL | partner 2.5 µg/mL | partner 3.2 µg/mL | partner 4 µg/mL | partner 5 µg/mL | partner 6.4 µg/mL | partner 8 µg/mL | partner 16 µg/mL
first compound 6.25 µg/mL | ≥ 1 | 0.616 | 0.682 | 0.0933 | 0.0068 | 0.154 | 0.0135 | 0.069 | 0.0181
first compound 12.5 µg/mL | 0.625 | 0.199 | 0.282 | 0.0301 | 0.0461 | 0.0396 | 0.0233 | 0.0351 | 0.0262
first compound 25 µg/mL | 0.247 | 0.0657 | 0.0742 | 0.0436 | 0.0163 | 0.0343 | 0.0151 | 0.044 | 0.0094

main component drawn
Details | Bliss interaction score
[3] | 0.165
[4] | 0.134
[5] | -0.0674
[6] | 0.11

O=C(O[C@@H]1Cc2c(O)cc(O)cc2O[C@@H]1c1cc(O)c(O)c(O)c1)c1cc(O)c(O)c(O)c1 [EGCG] + C[C@H]1COc2c(N3CCN(C)CC3)c(F)cc3c(=O)c(C(=O)O)cn1c23 [Levofloxacin]
fitness, [1], one replicate
Details | first compound 6.25 µg/mL | first compound 12.5 µg/mL | first compound 25 µg/mL
partner 0.001 µg/mL | 0.993 | 0.712 | 0.276
partner 0.0078 µg/mL | 0.88 | 0.788 | 0.668

fitness
Details | first compound 6.25 µg/mL | first compound 12.5 µg/mL | first compound 25 µg/mL | first compound 50 µg/mL
[1], partner 0.002 µg/mL | 0.941 | – | – | –
[1], partner 0.0039 µg/mL | 0.89 | 0.629 | – | –
[1], partner 0.0312 µg/mL | 0.05 | 0.038 | 0.0206 | –
[1], partner 0.0625 µg/mL | 0.0332 | 0.0286 | 0.0506 | –
[1], partner 0.125 µg/mL | 0.058 | 0.0419 | 0.0505 | –
[2], partner 0.1725 µg/mL | – | 0.876 | 0.815 | 0.868
[2], partner 0.2 µg/mL | – | 0.925 | 0.904 | 0.845
[2], partner 0.345 µg/mL | – | 0.804 | 0.733 | 0.897
[2], partner 0.4 µg/mL | – | 0.832 | 0.826 | 0.671
[2], partner 0.69 µg/mL | – | – | 0.777 | –
[2], partner 0.8 µg/mL | – | 0.333 | 0.262 | 0.337

Details | Bliss interaction score
[3] | -0.055
[4] | -0.0447
[5] | -0.0322
[6] | -0.092
